Broadly, the melting point is the temperature of the solid-liquid transition. Regarding `N#CC(CC(=O)O)(c1ccc(F)cc1)c1ccc(F)cc1`, the melting point is 165 to 166 °C.
Under `CC(=O)Oc1ccc(S(=O)(=O)c2cnc(C)nc2Nc2c(C)cc(C)cc2C)cc1` stands 142 to 144 °C; under `O=C(Nc1ccccn1)C(=O)OC1CCCCC1`, 62 to 64 °C.
Consider `C=CC(=O)N(C1CC(C)(C)NC(C)(C)C1)C1CC(C)(C)NC(C)(C)C1`, for which the melting point was in the range of 115 to 118 °C.
Under `O=C(O)CCCC[C@@H]1SC[C@H]2[C@@H]1N(Cc1ccccc1)C(=O)N2Cc1ccccc1` stands 88 to 89 °C.
As to `CCCCCC(=O)NC[C@H]1CNC(=O)O1`, the melting point worked out at 124 °C.
With `CCC1(C)OC1(C#N)C(=O)O` (configuration not stated) the figure was 139 to 140 °C; with `CC(O)(CO)c1cccc(OCc2ccc3ccccc3c2)c1` (single isomer, unassigned; (-)), 104 to 106 °C.
Under `O=C(NCCO)NCCCCC1CCSS1` (configuration not stated) stands 50 to 65 °C.
Under `CN(c1cc(OC(F)(F)F)cc2cc(C3=NCC(CC(N)=O)S3)[nH]c12)S(=O)(=O)c1cccs1` (configuration not stated) stands 202 to 203 °C; under `O=CC(=C(c1ccc(F)cc1)c1ccc(F)cc1)n1cnnn1`, 161 °C.
`O=C1c2ccc(SCc3ccccc3)cc2C(=O)c2cc3ccccc3cc21` had a melting point of 200 to 203 °C.
Under `COC(=O)C(=O)c1ccnc(NC=O)n1` stands 143 to 144 °C; under `CCCC[C@H](NC(=O)[C@H](Cc1ccccc1)NC(=O)OCc1ccccc1)C(=O)CSCc1ccco1`, 123 to 124 °C.
With `CC(=O)Oc1ccc2c(c1)Cc1cc(OC(C)=O)ccc1-2` the figure was 168 °C; with `CCCC(CC)c1nc(C)nc2c1c(C)c(C)n2-c1c(C)cc(C)cc1C` (configuration not stated), 100 to 102 °C; with `CCCCC(Cc1ccc(OCCNC(=O)c2ccc(-c3ccc(CO)cc3)cc2)cc1)C(=O)O` (configuration not stated), 111 to 113 °C.
The compound `CC(C)c1cccc(C(C)C)c1NC(=O)C1c2ccccc2OCc2nc(Br)ccc21` (configuration not stated) showed a melting point of 151 to 153 °C.
Under `CS(=O)(=O)c1ccc(-n2nc(-c3ccc4c(c3)CCN(C3CCC3)CC4)ccc2=O)cc1` stands 225 °C; under `O=C(O)CNC(=O)Nc1ccc(CC(=O)OCc2ccccc2)cc1`, 192 °C; under `O=C(NC1CSc2ccccc2NC1=O)OCc1ccccc1` (configuration not stated), 149 to 151 °C.
With `CC1(C)CCC(C)(C)c2cc(C=C=Cc3ccc(C(=O)O)cc3)ccc21` the figure was 227 to 228 °C; with `COC(=O)C1CCC2C3CCC4CC(OC(=O)CCl)CCC4(C)C3C(OC(=O)CCl)CC12C` (configuration not stated), 149 to 155 °C.
With `O=c1n(CCCF)nnn1-c1ccc([N+](=O)[O-])cc1F` the figure was 86 to 89 °C; with `CC(C)(C)OC(=O)N[C@@H](Cc1ccc(-c2ccccc2)cc1)C(=O)OCc1ccccc1`, 98.3 to 100 °C; with `C#Cc1cccc(NC(=O)CCCC(=O)O)c1`, 150 to 154 °C.
With `CC1(C)CCC(C)(C)c2cc(-c3ccc(O)c(-c4ccc(C(=O)O)cc4)c3)ccc21`, the melting point fell in the range of 264 to 267 °C.
With `N#CCc1cc(C(=O)O)cs1` the figure was 154 to 159 °C.
Under `O=C(NC1N=C(c2ccccc2F)c2ccccc2NC1=O)c1ccccc1` (racemic) stands 243 to 244 °C; under `O=S(Cc1cccc(O)c1)c1nc2cnccc2[nH]1` (configuration not stated), 224 to 227 °C.
Under `O=C(CCCl)N(c1ccccc1)C1CCCc2ccccc21` (configuration not stated) stands 78 to 81 °C; under `Cc1cc(C)c(S(=O)(=O)Oc2nc(Nc3ccc(F)cc3F)c(C(=O)n3ccnc3)cc2F)c(C)c1`, 98 to 101 °C; under `COc1cc2c(=O)cc3c4ccccc4sn3c2c(OC)c1OC`, 196 °C.
With `COc1ccc(CCc2ccc(NC(=O)C(=O)c3sc4ccccc4c3O)cc2)cc1OC`, the melting point turned out to be 203 °C.
With `Cc1cc(-c2nc3c(s2)C(=O)c2ccccc2C3=O)oc1C` the figure was 250 °C; with `COC(=O)[C@H]1Cc2ccc(C)cc2C(=O)[C@H](C)S1` (relative stereo), 99 to 100 °C.
As to `O=C(Nc1ccc(Oc2ccc(Cl)cc2)cc1)N1CC(c2ccccc2)=C(c2ccc(Cl)cc2)N1`, the melting point fell in the range of 158 to 161 °C.
For `CC(C)c1cc(-c2ccc3c(c2)OCO3)[nH]c(=O)c1C#N`, the melting point was in the range of 266 to 268 °C.
In the case of `C[C@]1(COc2ccc(N3CCN(C(=O)c4ccc(OC(F)(F)F)cc4)CC3)cc2)Cn2cc([N+](=O)[O-])nc2O1`, the melting point was in the range of 202 to 203 °C.
With `CN(c1ccccc1)N1C(=O)C(Cl)=C(c2ccc(Cl)cc2)C1=O` the figure was 155 to 157 °C.
With `Cc1c(/C=C/C(=O)N(C)C)ncn1C(c1ccccc1)(c1ccccc1)c1ccccc1` the figure was 195 to 197 °C; with `COc1cc(C(=O)CS(C)=O)c(N)c(OC)c1OC` (configuration not stated), 102 to 104 °C; with `O=C(c1ccc(Cl)cc1)[C@H]1C[C@H]1C(=O)N1CCC(N2Cc3ccccc3NC2=O)CC1` (relative stereo), 272 to 273 °C.
Under `COc1ccc(-n2cccc2)c([N+](=O)[O-])c1` stands 75.5 to 76.5 °C.
For the compound `COc1ccc2c(c1)OC(C)(C)C(NC(=O)c1cc(F)ccc1OC)C2=O` (configuration not stated), the melting point lay within 143 to 144 °C.
Under `COc1ccc2c(c1)CCN1CCC(Nc3ccc(NC(C)=O)cc3)CC21` (configuration not stated) stands 219 to 221 °C; under `Cc1ccccc1C(=O)Nc1ccc(C(=O)N2CCCC(NC(=O)Cn3ccnc3)c3ccccc32)cc1` (configuration not stated), 250 to 252 °C; under `O=C(c1ccc(Cl)cc1)c1ccc(N2N=CCNC2=O)cc1Cl`, 158 to 159 °C.
Compound `Cc1cc(C)n(-c2nnc3cc(Cl)ccc3n2)n1` returned a melting point of 174 °C.
With `BrCCc1c[nH]c2ccccc12` the figure was 57 to 60 °C; with `CCc1nc2cc(Cl)c(S(N)(=O)=O)cc2[nH]1`, 240 to 242 °C; with `O=c1ccc(N2CCC(CCCO)CC2)n[nH]1`, 174 °C.
Under `O=C(NCCCCCCOC(=O)N1CCC2(CCCC2)CC1)OC1CCN(C(=O)Oc2ccc([N+](=O)[O-])cc2)CC1` stands 113 to 114 °C; under `O=C(NCCN1CCOCC1)N1CCN2C(=O)OC(c3ccccc3)(c3ccccc3)C2C1` (configuration not stated), 174 to 175 °C; under `O=C(O)c1cccc(CN2CCC(c3cn(CCc4ccccn4)c4ccccc34)CC2)c1`, 141 to 142 °C.
Under `Cc1c(C(=O)O)ccc2c1C(Cl)C(Cl)CS2(=O)=O` (configuration not stated) stands 236 to 244 °C; under `CCOc1ccc(S(=O)(=O)Cl)cc1OC`, 72 to 73 °C.
Compound `CC12CCC3C(CCC4=CC(=O)C=C(CO)C43C)C1CCC2=O` (configuration not stated) returned a melting point of 201 to 202 °C.
With `C[C@H](NS(=O)(=O)c1ccc(-c2c(C#N)c3cc(F)c(OC(F)F)cc3n2C2CCC2)nc1)C(F)(F)F` the figure was 172 to 175 °C; with `O=C(CCn1c2ccccc2c2ccccc21)OCCn1c2ccccc2c2ccccc21`, 163 to 165 °C.
The compound `CC(C)(O)C(=O)c1ccc(OCC2CO2)cc1` (configuration not stated) yielded a melting point of 54 °C.
With `CNC(=O)c1nc2ccc3c(c2c(-c2ccc4c(c2)OCO4)c1C)OCO3` the figure was 141 to 146 °C.

(Values after a melting point compilation (Tetko et al.; mined from patent text by program, amines drawn as free bases though some values may be those of a salt).)
